In patent publication US20260256723A1, “THIOL-BASED COMPOUNDS AND COMPOSITIONS AND USES THEREOF” (CASE WESTERN RESERVE UNIVERSITY, priority 2022, published 2026):
“And” between values parts separate entries of the source, which are not always exact repeats. Equal entries are not always repeated. “Also recorded” adds a separate entry of the source. Where two headings read alike, the source gives them in different places.

What was measured:
[1] = test system: unanesthetized rats receiving continuous intravenous infusion of fentanyl; design: species or system Sprague Dawley rat; conditions: rat, in vivo
[2] = test system: unanesthetized rats receiving continuous intravenous infusion of fentanyl; design: species or system Sprague Dawley rat; conditions: rat, in vivo; remark: listed apart in the source
[3] = test system: unanesthetized rats receiving continuous intravenous infusion of fentanyl; design: species or system Sprague Dawley rat; conditions: rat, in vivo; remark: listed apart in the source
[4] = test system: unanesthetized rats receiving continuous intravenous infusion of fentanyl; design: species or system Sprague Dawley rat; conditions: rat, in vivo; remark: listed apart in the source
[5] = test system: rats receiving infusion of fentanyl; design: species or system Sprague-Dawley rat; conditions: rat, in vivo
[6] = test system: rats given bolus injections of fentanyl or morphine; conditions: rat, in vivo
[7] = test system: freely moving rats injected with morphine; assay: Ventilatory responses to morphine and subsequent injections of L-NACme; format: in vivo, rat
[8] = after morphine 10 mg/kg IV, two injections of L-NACme 500 μmol/kg IV
[9] = before morphine, group later given L-NACme
[10] = morphine 10 mg/kg IV, before L-NACme

## CC(=O)N[C@@H](CS)C(=O)O [L-NAC, N-acetyl-L-cysteine]
[1]
  EEP, actual value: 45.4 ms
  EF50, baseline: 0.36 ± 0.03 mL/s
  EIP, actual value: 7.9 ms
  Effect on Freq, TV and MV (words, FIG. 1): immediate and sustained increase in these parameters to levels approaching (Freq and MV) and actually reaching (TV) pre-infusion levels; also recorded: did not further boost Freq whereas it did boost TV and therefore MV
  Effect on NEBI (words, FIG. 11): noticeable decrease in NEBI
  Effect on PEF (words, FIG. 4): substantial and sustained increases in PEF
  Effect on PIF (words, FIG. 4): sustained partial recover of PIF
  Effect on Te (words, FIG. 2): prevented this increase in Te
  Effect on Ti/Te (words, FIG. 2): sustained elevation in Ti/Te compared to vehicle-injected rats
  Effect on expiratory drive (words, FIG. 5): immediate, substantial and sustained increases in expiratory dive
  End Expiratory Pause, baseline: 44.3 ± 4.0
  ExpD TV/Te, actual value: 5.5 mL/s
  Expiratory Drive (TV/Te), baseline: 5.5 ± 0.3 mL/s
  Expiratory Time (Te), baseline: 0.443 ± 0.022 s
  Freq, actual value: 102 breaths/min
  Frequency of Breathing (Freq), baseline: 102 ± 5 breaths/min
  InspD (TV/Ti), actual value: 12.4 mL/s
  Inspiratory Drive (TV/Ti), baseline: 12.4 ± 0.6 mL/s
  Inspiratory Time (Ti), baseline: 0.200 ± 0.010 s
  Level of NEBI (words, FIG. 11): not noticeably different from those that received the second injection of vehicle
  MV, actual value: 247 mL/min
  Minute Ventilation, baseline: 247 ± 14 mL/min
  NEBI, actual value: 2.6%
  PEF, actual value: 11.2
  PIF/PEF, actual value: 1.61
  PIF/PEF, baseline: 1.63 ± 0.11
  Pause, (Te/RT) − 1, baseline: 0.40 ± 0.08
  Pause, (Te/RT)-1, actual value: 0.40
  Peak Expiratory Flow (PEF), baseline: 11.2 ± 0.7 mL/s
  Peak Inspiratory Flow (PIF), baseline: 17.6 ± 1.1 mL/s
  RT, actual value: 0.32 s
  Relaxation Time (RT), baseline: 0.32 ± 0.02 s
  TV, actual value: 2.42 mL
  Te − RT, baseline: 0.12 ± 0.02
  Te, actual value: 0.44 s
  Te-RT, actual value: 0.12
  Ti, actual value: 0.20 s
  Ti/Te, actual value: 0.46
  Ti/Te, baseline: 0.46 ± 0.02
  Tidal Volume, baseline: 2.42 ± 0.05 mL
  Total (cumulative) change in NEBI (words, FIG. 7): virtually eliminated NEBI
  Total (cumulative) change in PEF (words, FIG. 7): pronounced increase in PEF
  Total (cumulative) change in expiratory drive (words, FIG. 7): converted the decrease in expiratory drive (ExpD) to an increase
[1]; iv
  EF50, total percent change: +57.6 ± 11.3%
  EIP, actual value: 20.2 ms and 19.7 ms
  EIP, arithmetic change: +12 msec
  End Expiratory Pause, total percent change: +9.1 ± 6.3%
  End Inspiratory Pause, total percent change: +147.0 ± 12.9%
  ExpD TV/Te, actual value: 4.6 mL/s and 6.9 mL/s and 8.1 mL/s
  Expiratory Drive (TV/Te), total percent change: −14.6 ± 3.1%
  Expiratory Time (Te), total percent change: −10.3 ± 3.5%
  Freq, actual value: 78 breaths/min and 90 breaths/min and 89 breaths/min
  Frequency of Breathing (Freq), total percent change: −21.6 ± 2.4%
  InspD (TV/Ti), actual value: 4.8 mL/s and 6.6 mL/s and 7.9 mL/s
  Inspiratory Drive (TV/Ti), total percent change: −56.3 ± 2.7%
  Inspiratory Time (Ti), total percent change: +82.5 ± 14.1%
  MV, actual value: 135 mL/min and 210 mL/min and 241 mL/min
  Minute Ventilation, total percent change: −39.9 ± 2.7%
  NEBI, actual value: 2.0% and 1.0% and 1.3%
  NEBI, arithmetic change: −0.6% and −1.6% and −1.3%
  PEF, actual value: 11.2 and 13.8 and 15.3
  PIF/PEF, actual value: 0.82 and 0.84 and 0.93
  PIF/PEF, total percent change: −42.1 ± 4.7%
  Pause, (Te/RT) − 1, total percent change: +348.6 ± 67.4%
  Pause, (Te/RT)-1, actual value: 1.32 and 0.94
  Peak Expiratory Flow (PEF), total percent change: −2.2 ± 2.8%
  Peak Inspiratory Flow (PIF), total percent change: −44.0 ± 3.7%
  RT, actual value: 0.17 s and 0.18 s
  Relaxation Time (RT), total percent change: −41.4 ± 4.6%
  TV, actual value: 1.73 mL and 2.34 mL and 2.71 mL
  Te − RT, total percent change: +129.9 ± 28.2%
  Te, actual value: 0.38 s and 0.34 s
  Te-RT, actual value: 0.21 and 0.17 and 0.16
  Ti, actual value: 0.36 s and 0.35 s
  Ti/Te, actual value: 0.96 and 1.06 and 1.05
  Ti/Te, total percent change: +104.4 ± 11.6%
  Tidal Volume, total percent change: −23.5 ± 2.5%
[2]
  A-a gradient: 17.9 ± 0.7 mmHg
  Arterial blood pH: 7.442 ± 0.008
  Beneficial effects on ABG chemistry and A-a gradient (words, FIG. 9): still evident 30 min after the second injection of L-NAC
  pCO2: 35.7 ± 0.03 mmHg
  pO2: 92.1 ± 0.07 mmHg
  sO2: 99.0 ± 0.4%
[2]; iv
  A-a gradient: 27.6 ± 0.8 mmHg and 23.1 ± 1.3 mmHg and 26.1 ± 1.5 mmHg
  Arterial blood pH: 7.162 ± 0.026 and 7.392 ± 0.006 and 7.443 ± 0.013
  pCO2: 57.3 ± 1.5 mmHg and 36.2 ± 1.1 mmHg and 35.2 ± 0.4 mmHg
  pO2: 58.4 ± 1.9 mmHg and 86.3 ± 1.6 mmHg and 84.5 ± 1.4 mmHg
  sO2: 59.1 ± 1.8% and 93.6 ± 0.9% and 92.4 ± 1.2%
[3]
  Actual TFL values: 11.9 ± 0.1 s and 11.5 ± 0.1 s
[4]
  Righting reflex, time to get back on all four paws: 4.6 ± 1.5 s
[5]
  Fecal output, number of pellets, total weight (words, FIG. 13C-D): normalized by L-NAC injections
  Urine and fecal parameters (words, FIG. 13): did not affect parameters in vehicle-infused rats
[6]
  Effect of bolus L-NAC on bolus opioid: completely without effect

## CCOC(=O)[C@H](CS)NC(C)=O [L-NACme, N-acetyl-L-cysteine ethyl ester]
[7]; [8]
  Frequency, Drug - entire 75 min, % change: +11 ± 2 %
  Minute Ventilation, Drug - entire 75 min, % change: −19 ± 4 %
  Tidal Volume, Drug - entire 75 min, % change: −22 ± 3 %
[7]; [9]
  Frequency, Pre values: 98 ± 4
  Minute Ventilation, Pre values: 259 ± 17
  Tidal Volume, Pre values: 2.61 ± 0.16
[7]; [10]
  Frequency, Morphine - first 15 min response (%): −4.9 ± 2.8%
  Frequency, Morphine - peak (+) response (%): +42 ± 6 %
  Frequency, Morphine peak (−) response (%): −22 ± 4 %
  Minute Ventilation, Morphine - first 15 min response (%): −35 ± 3 %
  Minute Ventilation, Morphine - peak (+) response (%): +20 ± 6 %
  Minute Ventilation, Morphine peak (−) response (%): −54 ± 4 %
  Tidal Volume, Morphine - first 15 min response (%): −34 ± 3 %
  Tidal Volume, Morphine - peak (+) response (%): −16 ± 6 %
  Tidal Volume, Morphine peak (−) response (%): −40 ± 6 %
